Source: patent US6759538B2, “Substituted diphenyl heterocycles useful for treating HCV infection” (priority 2001, dated 2004)

How the values were obtained:
[1] = Pharmacokinetics, plasma levels with liposome suspension vehicles; assay type: in vivo, rats, monkeys and chimpanzees; conditions: subcutaneous, liposome suspension vehicles: 5 mg/ml in water with 100 or 200 mg/ml lecithin, or 100 mg/ml lecithin and 5 mg/ml cholesterol
Protocol: The pharmacokinetic properties of compound 9 were calculated in rats, monkeys and chimpanzees using the intravenous and subcutaneous routes of administration with a variety of different delivery vehicles.

[2] = test system: HCV nonstructural protein NS5A; test: Quantitative Western blot assay; assay type: cell-based, Hepatitis C virus (HCV); conditions: 9-13 replicon cells, 48 hours with compound, second symbol of Replicon/Western
Protocol: Alternatively, the inhibitory activity of the compounds can be confirmed using a quantitative Western immunoblot assay utilizing antibodies specific for HCV non-structural proteins, such as NS3, NS4A NS5A and NS5B. In one embodiment of this assay, replicon cells are treated with varying concentrations of test compound to determine the concentration of test compound that yields a 50% reduction in the amount of a non-structural protein produced as compared to a control sample (IC50). A single non-structural protein may be quantified or multiple non-structural proteins may be quantified. Antibodies suitable for carrying out such immunoblot assays are available commercially (e.g., from BIODESIGN International, Saco, Me.).
Certain exemplary compounds of the invention were also tested for their ability to inhibit HCV replication using a quantitative Western blot analysis with antibodies specific for the HCV nonstructural protein NS5A. Actively dividing 9-13 replicon cells were seeded into 6-well plates at a density of 1×10^5 cells/well in a volume of 2 ml/well and incubated at 37° C. and 5% CO2 for 24 hours. Various concentrations of test compounds (in a volume of 10 ul) were added to the wells and the cells incubated for another 48 hours. Protein samples were prepared from the cultured cells, resolved on a SDS-PAGE gel and transferred to a nitrocellulose membrane. The membrane was blocked with 5% non-fat milk in PBS for 1 hour at room temperature. Primary antibody (anti NS5A antibody; BIODESIGN International, Saco, Me.) incubation was performed for 1 hour at room temperature, after which the membrane was washed 3 times (for 15 min per time) with PBST (PBS plus 0.1% Tween 20). Horseradish peroxidase conjugated secondary antibody incubation was performed for 1 hour at room temperature and the membrane was washed 3 times (for 15 min per time) with PBST. The membrane was then soaked in substrate solution (Pierce) and exposed to a film or quantified using an imager. In this assay, the amount of test compound that yielded a 50% reduction in the amount of NS5A protein translated as compared to a control sample (IC50) was determined.

[3] = Safety studies in rats, subcutaneous and intravenous administration
Protocol: The safety of compound 9 was evaluated in rats by both subcutaneous and intravenous administration in several experiments. […] The experiments performed are summarized below.
In a second study compound 9 was administered by the IV route at doses of 10 and 30 mg/kg in 100% PEG. The volume administered for the 10 mg/kg dose was 0.67 ml/kg/day and volume given the 30 mg/kg group was 2 ml/kg/day. In addition, there were two control groups. One control received 100% PEG alone at a volume of 2 ml/kg/day while the other was an untreated sham control group. […] Parameters of study included: clinical observations, body weights, hematology, clinical chemistry, gross necropsy, organ weights, bone marrow assessment and histopathology of selected organs.
A vehicle control group received the 100% PEG alone at the same volume. Groups comprised 3 males and 3 females each. Before reducing the dose to 10 and 30 mg/kg two rats received 100 mg/kg IV at a volume of 1 ml/kg. […] Parameters of study included: clinical observations, body weights, hematology, clinical chemistry, gross necropsy, organ weights and histopathology of selected organs (including injection sites).

HCV virus = test: HCV infection assay; assay type: cell-based, Hepatitis C virus (HCV); conditions: hepatocyte cells from a donor, inoculated Day 3, RNA Day 8; read-out: IC50 HCV infection assay (HCV RNA, Taqman)
Source text: Alternatively, the inhibitory activity of the compounds may be confirmed in an HCV infection assay, such as the HCV infection assay described in Fournier et al., 1998, J. Gen. Virol. 79(10):2367:2374, the disclosure of which is incorporated herein by reference. In one embodiment of this assay, the amount of test compound that yields a 50% reduction in HCV replication or proliferation as compared to a control cell (IC50) may be determined. The extent of HCV replication may be determined by quantifying the amount of HCV RNA present in HCV infected cells. A specific method for carrying out such an assay is provided in the Examples section.
The activity of Compound 9 was also confirmed in an HCV infection assay. The assay was carried out essentially as described in Fournier et al., 1998, J. Gen. Virol. 79:2367-2374. Briefly, hepatocyte cells from a doner were plated on Day 1. On Day 3, the cells were inoculated with HCV virus and test compound was added. On Day 5, the medium was changed and test compound was added. On Day 7, the medium was changed and test compound was added. On Day 8, the RNA was isolated and the HCV RNA quantified using a Taqman assay.

HCV replicon = HCV replicon assay (luciferase); assay type: cell-based, Hepatitis C virus (HCV); conditions: 5-2 Luc replicon cells, 24 hours with compound, luciferase emission; first symbol of Replicon/Western
[4] = Toxicokinetic determinations in rats; conditions: rat

With `O=C(Nc1cccc(-c2cc(-c3c(Cl)cccc3Cl)no2)c1)C(Cl)Cl` [Compound 9, 2,2-Dichloro-N-[3-[3-(2,6-dichlorophenyl)-5-isoxazolyl]phenyl] Acetamide] the plasma levels [1] was “Sustained plasma levels were achieved”, the IC50 [2] was ≤ 10 µM and the “other findings, second study” value ([3]; IV 10 and 30 mg/kg, 7 days) was “no untoward findings”. The “well tolerated dose, first study” value ([3]; Sprague Dawley rats, SC and IV, dose escalation) was ≤ 30 mg/kg, the “clinical signs at IV 60 mg/kg” value ([3]; first study, Day 5, IV 60 mg/kg in 100% PEG) was “immediate clinical signs (collapsing, thrashing, dyspnea and reddish discolored urine) were observed” and the “time for symptoms to abate” value ([3]; first study, IV 60 mg/kg) was ≤ 1 h. The “NOAEL (no observed adverse effect level)” value ([3]; rat, IV, 7 days) was 30 mg/kg, the NOAEL ([3]; rat, intravenous, 14-days) was 30 mg/kg and the well tolerated dose ([3]; rats, subcutaneous and intravenous) was ≤ 30 mg/kg/day. For the same molecule, the “hematology finding at 30 mg/kg” value ([3]; second study, IV, 100% PEG, 7 days, relative to untreated control but not vehicle control) was “very slight decreases in red blood cells, hemoglobin and hematocrit”, the necropsy findings ([3]; third study, IV 10 and 30 mg/kg) was “no gross or microscopic morphological changes” and the “clinical observations, body weights, hematology, clinical chemistry, organ weights” value ([3]; third study, IV 10 and 30 mg/kg, versus vehicle control) was “unaffected by treatment”. The “mortality at 100 mg/kg IV” value ([3]; third study, two rats, 100 mg/kg IV, 1 ml/kg) was “Both animals died within a minute or two of dosing”, the IC50 (HCV virus) was < 10 µM and the IC50 (HCV replicon) was ≤ 10 µM. The T1/2 ([4]; IV) was “about 5 minutes”, the “exposure, IV route” value ([4]; IV) was “high exposure” and the “persistence of measurable compound” value ([4]; IV) was “still apparent after 2 hours”. The Tmax ([4]; SC) was “about 30 minutes”, the “exposure, subcutaneous route” value ([4]; SC) was “much lower exposure” and the persistence of exposure ([4]; SC) was “remains sustained through 2 hours post-dosing”.
